Source: PMC10147662, “Structural basis for the ligand promiscuity of the neofunctionalized, carotenoid-binding fasciclin domain protein AstaP” (Communications Biology, 2023)

Tests used:
[1] = molecular target: AstaPo1 (AstaP-orange1), residues 21-223 (Coelastrella astaxanthina, UniProt S6BQ14); assay: differential scanning calorimetry, holoform vs apoform; assay type: binding; details: 20 mM Na-phosphate pH 7.0, 1 °C per min, apo Tm ~60 °C
AstaPo1^41–190 = molecular target: T1, AstaPo1^41–190 (Coelastrella astaxanthina, UniProt S6BQ14); assay: SEC with diode-array absorbance; Trp fluorescence quenching; DSC of holoform; assay type: binding; details: holoform from ZEA-synthesizing E. coli; apoform insoluble
T1 construct: gene astaP; isolated FAS1 domain 41-190, N- and C-terminal regions removed, His6 cut leaving GPHM, E. coli, 16 kDa, monomer
T1 sequence (S6BQ14 entry or part of it): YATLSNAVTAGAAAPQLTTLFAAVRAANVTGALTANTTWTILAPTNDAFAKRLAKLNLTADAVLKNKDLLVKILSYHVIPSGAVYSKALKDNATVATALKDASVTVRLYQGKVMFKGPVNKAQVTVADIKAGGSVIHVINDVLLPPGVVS

Sequence of AstaPo1 (AstaP-orange1), residues 21-223 (S6BQ14 entry or part of it): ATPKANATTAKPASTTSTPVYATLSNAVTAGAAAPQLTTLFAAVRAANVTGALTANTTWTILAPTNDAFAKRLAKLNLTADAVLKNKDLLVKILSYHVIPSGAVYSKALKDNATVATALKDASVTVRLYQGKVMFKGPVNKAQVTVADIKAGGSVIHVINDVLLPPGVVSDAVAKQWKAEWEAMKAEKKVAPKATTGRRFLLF

Tm increase ([1]; holoform from CAN-synthesizing E. coli)	Tm increase ([1]; holoform from ZEA-synthesizing E. coli)	SMILES	SEC with diode-array absorbance; Trp fluorescence quenching; DSC of holoform (AstaPo1^41–190)
> 15 °C	–	CC1=C(/C=C/C(C)=C/C=C/C(C)=C/C=C/C=C(C)/C=C/C=C(C)/C=C/C2=C(C)C(=O)CCC2(C)C)C(C)(C)CCC1=O [canthaxanthin]	–
–	> 15 °C	CC1=C(/C=C/C(C)=C/C=C/C(C)=C/C=C/C=C(C)/C=C/C=C(C)/C=C/C2=C(C)C[C@@H](O)CC2(C)C)C(C)(C)C[C@H](O)C1 [zeaxanthin]	which confirms the direct carotenoid interaction within this domain
